Results taken from paper PMC2391111 (British Journal of Cancer, 2008).
Entries after “also recorded” stand apart in the source; their conditions may differ. Where two headings read alike, the source gives them in different places.

Tests used:
metastatic breast cancer = conditions: single agent, anthracycline-pretreated metastatic breast cancer ref Jones et al, 2005; cited from earlier work
20S proteasome = 20S proteasome (Homo sapiens, UniProt P28074); assay: 20S proteasome inhibition assay in whole blood; format: in vivo, patients
Excerpt: (§1) In patients participating in pharmacokinetic analysis, blood samples were taken on day 1, cycle 1, to determine the plasma concentration time profile of docetaxel and bortezomib. Samples were collected immediately before docetaxel infusion and bortezomib injection and at prespecified intervals on day 1. Samples were also taken for bortezomib pharmacokinetic analysis on day 11 of cycle 1. Whole-blood samples were taken for pharmacodynamic analysis using 20S proteasome inhibition assay ([Lightcap et al, 2000]) immediately before and 1 h after bortezomib dosing on days 1 and 11 of cycles 1 and 2, and on days 2 and 12 of cycle 1, in a subset of patients participating in pharmacokinetic analysis.

[1] = system: alpha-1 acid glycoprotein (AAG), albumin, and lipoproteins; set-up: method as in Aventis Pharmaceuticals Inc, 2005; conditions: in vitro ref Aventis Pharmaceuticals Inc, 2005; cited from earlier work
[2] = Plasma pharmacokinetics of bortezomib and docetaxel given in combination; format: in vivo, patients; conditions: for AUC(0-t) / AUC(0-inf) / clearance / half-life / Vd / Cmax: human, plasma, intravenous; for AUC(0-t): read-out: AUC0–t, mean (%CV); for AUC(0-inf): read-out: AUC0–∞∞, mean (%CV); for clearance: read-out: CL, mean (%CV) (converted); for Cmax: read-out: Cmax, mean (%CV)
Excerpt: as §1

[3] = system: HER2-positive breast cancer cell lines; set-up: method as in Cardoso et al, 2006; conditions: HER2-positive cells, four cell lines ref Cardoso et al, 2006; cited from earlier work
[4] = 75 mg, docetaxel 75 mg m^−2 (n=7), day 1, with bortezomib
[5] = 100 mg, docetaxel 100 mg m^−2 (n=6), day 1, with bortezomib
[6] = 1 mg, bortezomib 1.0 mg m^−2 (n=5), day 1, with docetaxel
[7] = 1 mg, bortezomib 1.0 mg m^−2 (n=5), day 11
[8] = 1.3 mg, bortezomib 1.3 mg m^−2 (n=3), day 1, with docetaxel
[9] = 1.3 mg, bortezomib 1.3 mg m^−2 (n=3), day 11
[10] = 1.5 mg, bortezomib 1.5 mg m^−2 (n=6), day 11
[11] = 1.5 mg, bortezomib 1.5 mg m^−2 (n=8), day 1, with docetaxel

Sequence of 20S proteasome (P28074 60-263): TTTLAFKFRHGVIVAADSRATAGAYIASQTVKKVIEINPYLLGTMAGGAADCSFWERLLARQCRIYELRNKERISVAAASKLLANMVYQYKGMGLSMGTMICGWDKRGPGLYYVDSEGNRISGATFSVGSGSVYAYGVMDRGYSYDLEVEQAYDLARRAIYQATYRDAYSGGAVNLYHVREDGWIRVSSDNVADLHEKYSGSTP

## CC(=O)O[C@H]1C(=O)[C@@]2(C)[C@H]([C@H](OC(=O)c3ccccc3)[C@]3(O)C[C@H](OC(=O)[C@H](O)[C@@H](NC(=O)c4ccccc4)c4ccccc4)C(C)=C1C3(C)C)[C@]1(OC(C)=O)CO[C@@H]1C[C@@H]2O [paclitaxel]
Metastatic breast cancer
  Median TTP: 3.6 months
  Response rate: 25%

## CC(=O)O[C@@]12CO[C@@H]1C[C@H](O)[C@@]1(C)C(=O)[C@H](O)C3=C(C)[C@@H](OC(=O)[C@H](O)[C@@H](NC(=O)OC(C)(C)C)c4ccccc4)C[C@@](O)([C@@H](OC(=O)c4ccccc4)[C@H]21)C3(C)C [Docetaxel]
20S proteasome; whole blood
  Effect of coadministered docetaxel on 20S proteasome inhibition by bortezomib: appeared not to affect; also recorded: did not appear to affect
[1]
  Plasma protein binding: extensively plasma protein-bound
Metastatic breast cancer
  Median TTP: 5.7 months
  Response rate: 32%
[2]; [4]
  AUC(0-t): 1700 ng·h/mL
  AUC(0-inf): 1850 ng·h/mL
  clearance: 1420 mL/min
[2]; 75 mg, docetaxel 75 mg m^−2 (n=7), day 1, with bortezomib, read-out: T½,z, mean (%CV) (converted)
  half-life: 10.4 h
[2]; 75 mg, docetaxel 75 mg m^−2 (n=7), day 1, with bortezomib, read-out: Vss, mean (%CV)
  Vd: 180 L
[2]; 75 mg, docetaxel 75 mg m^−2 (n=7), day 1, with bortezomib, read-out: Vz, mean (%CV)
  Vd: 920 L
[2]; 75 mg, docetaxel 75 mg m^−2, day 1, patients with measurable plasma concentrations at 24 h post-dose (n=3), read-out: T½,z 24-h, mean (converted)
  half-life: 17.6 h
[2]; [5]
  AUC(0-t): 2550 ng·h/mL
  AUC(0-inf): 2730 ng·h/mL
  clearance: 1160 mL/min
[2]; 100 mg, docetaxel 100 mg m^−2 (n=6), day 1, with bortezomib, read-out: T½,z, mean (%CV) (converted)
  half-life: 15 h
[2]; 100 mg, docetaxel 100 mg m^−2 (n=6), day 1, with bortezomib, read-out: Vss, mean (%CV)
  Vd: 372 L
[2]; 100 mg, docetaxel 100 mg m^−2 (n=6), day 1, with bortezomib, read-out: Vz, mean (%CV)
  Vd: 1510 L
[2]; 100 mg, docetaxel 100 mg m^−2, day 1, patients with measurable plasma concentrations at 24 h post-dose (n=5), read-out: T½,z 24-h, mean (converted)
  half-life: 17.4 h
[2]; docetaxel 75 mg m^−2 (n=7), day 1, with bortezomib
  Cmax: 1620 ng/mL
[2]; docetaxel 100 mg m^−2 (n=6), day 1, with bortezomib
  Cmax: 2520 ng/mL

## CC(C)C[C@H](NC(=O)[C@H](Cc1ccccc1)NC(=O)c1cnccn1)B(O)O [Bortezomib]
[3]
  Effect on the effect of trastuzumab: acts synergistically
20S proteasome; all dose groups
  Percent 20S proteasome inhibition, cycle 2 versus cycle 1: greater in cycle 2 than cycle 1
20S proteasome; whole blood, 1 h post-dose
  Inhibition of 20S proteasome activity: 46.14–88.80%
20S proteasome; whole blood, immediately prior to the dose on day 11
  Inhibition of 20S proteasome activity: 10.93–51.18%
[2]; bortezomib 1.0 mg m^−2 (n=5), day 1, with docetaxel
  C0, mean (%CV): 208 (34) ng ml^−1
[2]; bortezomib 1.0 mg m^−2 (n=5), day 11
  C0, mean (%CV): 552 (148) ng ml^−1
[2]; bortezomib 1.3 mg m^−2 (n=3), day 1, with docetaxel
  C0, mean (%CV): 137 (54) ng ml^−1
[2]; bortezomib 1.3 mg m^−2 (n=3), day 11
  C0, mean (%CV): 237 (59) ng ml^−1
[2]; bortezomib 1.5 mg m^−2 (n=6), day 11
  C0, mean (%CV): 153 (41) ng ml^−1
[2]; bortezomib 1.5 mg m^−2 (n=8), day 1, with docetaxel
  C0, mean (%CV): 268 (71) ng ml^−1
[2]; [6]
  AUC(0-t): 43 ng·h/mL
  AUC(0-inf): 54.6 ng·h/mL
  clearance: 562 mL/min
[2]; 1 mg, bortezomib 1.0 mg m^−2 (n=5), day 1, with docetaxel, read-out: T½,z, mean (%CV) (converted)
  half-life: 9.15 h
[2]; 1 mg, bortezomib 1.0 mg m^−2 (n=5), day 1, with docetaxel, read-out: Vss, mean (%CV)
  Vd: 222 L
[2]; 1 mg, bortezomib 1.0 mg m^−2 (n=5), day 1, with docetaxel, read-out: Vz, mean (%CV)
  Vd: 408 L
[2]; [7]
  AUC(0-t): 112 ng·h/mL
  AUC(0-inf): 133 ng·h/mL
  clearance: 225 mL/min
[2]; 1 mg, bortezomib 1.0 mg m^−2 (n=5), day 11, read-out: T½,z, mean (%CV) (converted)
  half-life: 12.2 h
[2]; 1 mg, bortezomib 1.0 mg m^−2 (n=5), day 11, read-out: Vss, mean (%CV)
  Vd: 151 L
[2]; 1 mg, bortezomib 1.0 mg m^−2 (n=5), day 11, read-out: Vz, mean (%CV)
  Vd: 237 L
[2]; 1 mg, bortezomib 1.0 mg m^−2, day 1, patients with measurable plasma concentrations at 24 h post-dose (n=2), read-out: T½,z 24-h, mean (converted)
  half-life: 15.1 h
[2]; 1 mg, bortezomib 1.0 mg m^−2, day 11, patients with measurable plasma concentrations at 24 h post-dose (n=4), read-out: T½,z 24-h, mean (converted)
  half-life: 14.3 h
[2]; [8]
  AUC(0-t): 35.5 ng·h/mL
  AUC(0-inf): 49 ng·h/mL
  clearance: 850 mL/min
[2]; 1.3 mg, bortezomib 1.3 mg m^−2 (n=3), day 1, with docetaxel, read-out: T½,z, mean (%CV) (converted)
  half-life: 14.2 h
[2]; 1.3 mg, bortezomib 1.3 mg m^−2 (n=3), day 1, with docetaxel, read-out: Vss, mean (%CV)
  Vd: 596 L
[2]; 1.3 mg, bortezomib 1.3 mg m^−2 (n=3), day 1, with docetaxel, read-out: Vz, mean (%CV)
  Vd: 924 L
[2]; [9]
  AUC(0-t): 90.5 ng·h/mL
  AUC(0-inf): 111 ng·h/mL
  clearance: 350 mL/min
[2]; 1.3 mg, bortezomib 1.3 mg m^−2 (n=3), day 11, read-out: T½,z, mean (%CV) (converted)
  half-life: 12.2 h
[2]; 1.3 mg, bortezomib 1.3 mg m^−2 (n=3), day 11, read-out: Vss, mean (%CV)
  Vd: 237 L
[2]; 1.3 mg, bortezomib 1.3 mg m^−2 (n=3), day 11, read-out: Vz, mean (%CV)
  Vd: 374 L
[2]; 1.3 mg, bortezomib 1.3 mg m^−2, day 1, patients with measurable plasma concentrations at 24 h post-dose (n=2), read-out: T½,z 24-h, mean (converted)
  half-life: 18.1 h
[2]; 1.3 mg, bortezomib 1.3 mg m^−2, day 11, patients with measurable plasma concentrations at 24 h post-dose (n=2), read-out: T½,z 24-h, mean (converted)
  half-life: 17.1 h
[2]; [10]
  AUC(0-t): 103 ng·h/mL
  AUC(0-inf): 161 ng·h/mL
  clearance: 267 mL/min
[2]; 1.5 mg, bortezomib 1.5 mg m^−2 (n=6), day 11, read-out: T½,z, mean (%CV) (converted)
  half-life: 23.6 h
[2]; 1.5 mg, bortezomib 1.5 mg m^−2 (n=6), day 11, read-out: Vss, mean (%CV)
  Vd: 391 L
[2]; 1.5 mg, bortezomib 1.5 mg m^−2 (n=6), day 11, read-out: Vz, mean (%CV)
  Vd: 538 L
[2]; [11]
  AUC(0-t): 69 ng·h/mL
  AUC(0-inf): 85.3 ng·h/mL
  clearance: 615 mL/min
[2]; 1.5 mg, bortezomib 1.5 mg m^−2 (n=8), day 1, with docetaxel, read-out: T½,z, mean (%CV) (converted)
  half-life: 6.9 h
[2]; 1.5 mg, bortezomib 1.5 mg m^−2 (n=8), day 1, with docetaxel, read-out: Vss, mean (%CV)
  Vd: 209 L
[2]; 1.5 mg, bortezomib 1.5 mg m^−2 (n=8), day 1, with docetaxel, read-out: Vz, mean (%CV)
  Vd: 282 L
[2]; 1.5 mg, bortezomib 1.5 mg m^−2, day 1, patients with measurable plasma concentrations at 24 h post-dose (n=2), read-out: T½,z 24-h, mean (converted)
  half-life: 17.8 h
[2]; 1.5 mg, bortezomib 1.5 mg m^−2, day 11, patients with measurable plasma concentrations at 24 h post-dose, read-out: T½,z 24-h, mean (converted)
  half-life: 23.6 h
[2]; following the first dose, patients with measurable plasma concentrations at 24 h post-dose, read-out: Terminal half-lives, mean values across dose levels
  half-life: 15 to 18 h
